Data taken from patent US10206937B2, “Boronic acid derivatives and therapeutic uses thereof” (Qpex Biopharma, Inc., priority 2014, dated 2019).
pIC50, pKi: −log10 of the molar value. Where two headings read alike, the source gives them in different places.

Columns and labels:
NDM-1 [1] = target: T1, NDM-1 (Klebsiella pneumoniae, UniProt C7C422); assay: biochemical
[2] = target: T2, purified class A, C and D enzymes (UniProt Q6XEC0); assay type: biochemical; settings: read-out: Ki (OXA-48, NCF); purified OXA-48; nitrocefin reporter substrate
T2 construct: rows headed: Ki (OXA-48, NCF); other: purified OXA-48; nitrocefin reporter substrate

[3] = target: T3, purified class A, C and D enzymes (UniProt P0AD64, L31Q/G234S/E235K, species not given); assay type: biochemical; settings: read-out: Ki (SHV-12, NCF); purified SHV-12; nitrocefin reporter substrate
T3 construct: Ki (SHV-12, NCF); other: purified SHV-12; nitrocefin reporter substrate
T3 sequence (P0AD64 1-286 L31Q/G234S/E235K): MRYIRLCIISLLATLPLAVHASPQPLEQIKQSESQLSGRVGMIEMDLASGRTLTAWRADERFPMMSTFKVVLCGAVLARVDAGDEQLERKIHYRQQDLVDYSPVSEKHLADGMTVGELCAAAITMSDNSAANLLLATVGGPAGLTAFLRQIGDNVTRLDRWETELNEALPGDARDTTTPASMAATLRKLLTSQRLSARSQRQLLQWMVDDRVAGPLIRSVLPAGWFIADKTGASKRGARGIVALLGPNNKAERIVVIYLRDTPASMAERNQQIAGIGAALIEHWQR

VIM-1 = target: T4, VIM-1 (Pseudomonas aeruginosa, UniProt A0A0F7KYQ8); assay: biochemical; settings: cleavage of nitrocefin (200 uM) by VIM-1 supernatant
T4 construct: made in house; host or cells: ECM6711 strain carrying pUCP24-VIM-1 plasmid; culture supernatant used unpurified

[4] = system: strains of Enterobacteriaceae overexpressing various carbapenemases (class A and B); assay: organism not typed; assay type: cell-based
Excerpt: Several strains simultaneously expressing both class A and class B carbapenemases, which were constructed using conjugation, were also included in the panel.

OXA-48 = OXA-48 (Klebsiella pneumoniae, UniProt Q6XEC0); assay: Inhibition of purified class D carbapenemase OXA-48 (Ki, carbapenem substrates); assay type: biochemical
Sequence of OXA-48 (Q6XEC0 23-265, looked up): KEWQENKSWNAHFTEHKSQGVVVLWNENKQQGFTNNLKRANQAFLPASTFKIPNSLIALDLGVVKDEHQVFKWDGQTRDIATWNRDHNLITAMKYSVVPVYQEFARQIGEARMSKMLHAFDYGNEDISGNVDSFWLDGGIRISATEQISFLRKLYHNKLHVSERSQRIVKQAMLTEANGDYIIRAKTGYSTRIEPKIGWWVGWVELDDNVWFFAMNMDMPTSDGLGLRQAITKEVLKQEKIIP

[5] = target: T5, purified class A, C and D enzymes (UniProt Q9F663); assay type: biochemical; settings: read-out: Ki (KPC-2, NCF); purified KPC-2; nitrocefin reporter substrate
T5 construct: rows headed: Ki (KPC-2, NCF); other: purified KPC-2; nitrocefin reporter substrate

NDM-1 [6] = target: T1, NDM-1; assay: Inhibition of purified class B carbapenemase NDM-1 (Ki, imipenem substrate); assay type: biochemical; settings: NDM-1, substrate imipenem; read-out: Ki NDM-1, Imipenem
KPC-2 = KPC-2 (Klebsiella pneumoniae, UniProt Q9F663); assay: Inhibition of purified class A carbapenemase KPC-2 (Ki, carbapenem substrates); assay type: biochemical
Sequence of KPC-2 (Q9F663 25-293 limits assumed): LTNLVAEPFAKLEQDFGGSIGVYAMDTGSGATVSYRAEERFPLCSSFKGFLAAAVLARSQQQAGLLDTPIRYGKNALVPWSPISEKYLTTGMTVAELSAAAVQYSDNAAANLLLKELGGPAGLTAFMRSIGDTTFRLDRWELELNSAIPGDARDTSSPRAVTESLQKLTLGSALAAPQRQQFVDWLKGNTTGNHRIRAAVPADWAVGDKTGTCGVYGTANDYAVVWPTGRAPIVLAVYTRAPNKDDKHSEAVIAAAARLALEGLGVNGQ

[7] = system: strains of Enterobacteriaceae producing various carbapenemases (class A, D and B; 169 strains); assay: Meropenem or tebipenem potentiation by Compounds 97 or 62 (MIC); assay type: cell-based; settings: Compound 97 at a fixed concentration of 8 μg/ml
Experimental: The largest panel of clinical isolates expressing class A, D and B carbapenemases alone or in combination with other beta-lactamases (169 strains) was used to evaluate carbapenem potentiation activity of Compounds 97 and 62. MIC for meropenem and tebipenem of these strains were determined either alone or in the presence of Compounds 97 or 62, respectively, at a fixed concentration of 8 μg/ml in the growth media.

[8] = target: purified class A, C and D enzymes (Enterobacter cloacae, UniProt P05364); assay type: biochemical; settings: purified P99/AmpC of ECL; nitrocefin reporter substrate
Sequence of purified class A, C and D enzymes (Enterobacter cloacae, UniProt P05364) (P05364 21-381): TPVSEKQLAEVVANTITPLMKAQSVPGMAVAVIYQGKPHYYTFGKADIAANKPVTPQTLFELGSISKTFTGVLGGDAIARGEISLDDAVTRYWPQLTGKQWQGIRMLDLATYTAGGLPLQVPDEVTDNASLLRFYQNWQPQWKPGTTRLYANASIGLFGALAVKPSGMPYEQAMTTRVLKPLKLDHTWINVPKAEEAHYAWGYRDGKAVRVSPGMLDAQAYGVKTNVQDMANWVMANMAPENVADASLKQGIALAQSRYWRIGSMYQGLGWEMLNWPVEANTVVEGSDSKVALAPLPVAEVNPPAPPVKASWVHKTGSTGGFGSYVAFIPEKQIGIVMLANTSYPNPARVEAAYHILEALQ

[9] = target: purified class A, C and D enzymes (Escherichia coli, UniProt Q9L5C7); assay type: biochemical; settings: purified CTX-M-14; nitrocefin reporter substrate
Sequence of purified class A, C and D enzymes (Escherichia coli, UniProt Q9L5C7) (Q9L5C7 entry or part of it): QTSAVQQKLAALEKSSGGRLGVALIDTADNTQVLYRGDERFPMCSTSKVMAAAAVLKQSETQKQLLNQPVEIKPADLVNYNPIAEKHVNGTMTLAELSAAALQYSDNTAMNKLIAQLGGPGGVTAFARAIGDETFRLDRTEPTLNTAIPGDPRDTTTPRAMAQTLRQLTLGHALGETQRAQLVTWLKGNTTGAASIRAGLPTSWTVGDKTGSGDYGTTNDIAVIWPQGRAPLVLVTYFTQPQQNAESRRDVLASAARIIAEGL

[10] = cleavage of biapenem (100 uM) by NDM-1, read-out: Ki, Biapenem
[11] = cleavage of imipenem (100 uM) by NDM-1, read-out: Ki, Imipenem
[12] = cleavage of meropenem (100 uM) by NDM-1, read-out: Ki, Meropenem
[13] = cleavage of biapenem by OXA-48, read-out: Ki, Biapenem
[14] = cleavage of imipenem by OXA-48, read-out: Ki, Imipenem
[15] = cleavage of meropenem by OXA-48, read-out: Ki, Meropenem
[16] = cleavage of tebipenem by OXA-48, read-out: Ki, Tebipenem
[17] = purified OXA-48, substrate biapenem, read-out: Ki OXA-48, Biapenem

T1 sequence (C7C422 29-270, looked up, species assumed): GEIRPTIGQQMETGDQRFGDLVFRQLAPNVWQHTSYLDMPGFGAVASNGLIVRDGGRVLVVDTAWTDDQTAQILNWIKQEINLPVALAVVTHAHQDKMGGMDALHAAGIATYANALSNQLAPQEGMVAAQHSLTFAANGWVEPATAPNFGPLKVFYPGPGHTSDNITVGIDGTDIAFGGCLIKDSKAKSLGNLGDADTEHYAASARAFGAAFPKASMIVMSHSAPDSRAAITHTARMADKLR

SMILES | pKi (NDM-1 [1]; [11]) | pKi [2] | pKi [3] | pIC50 (VIM-1) | pKi [5] | pKi (NDM-1 [6]) | Ki (P99/AmpC of ECL, NCF) [8] | Ki (CTX-M-14, NCF) [9] | also measured
Nn1cnnc1S[C@H]1Cc2cccc(C(=O)O)c2OB1O [Compound 14, (R)-3-(4-amino-4H-1,2,4-triazol-3-ylthio)-2-hydroxy-3,4-dihydro-2H-benzo[e][1,2]oxaborinine-8-carboxylic acid] | > 8.00 | > 7.00 | > 7.00 | > 6.00 |  |  |  |  | pKi (NDM-1 [1]; [10]): > 8.00; pKi (NDM-1 [1]; [12]): > 8.00; carbapenem MIC (imipenem, meropenem) [4]: significantly reduced; pKi (OXA-48; [13]): 7.00 to 8.00; pKi (OXA-48; [14]): 7.00 to 8.00; pKi (OXA-48; [15]): < 7.00; pKi (OXA-48; [16]): < 7.00
CS[C@H]1Cc2cccc(C(=O)O)c2OB1O [Compound 16, (R)-2-hydroxy-3-(methylthio)-3,4-dihydro-2H-benzo[e][1,2]oxaborinine-8-carboxylic acid] | > 8.00 | > 7.00 | 6.00 to 7.00 | > 6.00 | > 7.00 |  |  |  | pKi (OXA-48; [17]): > 8.00
O=C(O)c1cccc2c1OB(O)[C@@H](OC1CNC1)C2 [Compound 18, (R)-3-(azetidin-3-yloxy)-2-hydroxy-3,4-dihydro-2H-benzo[e][1,2]oxaborinine-8-carboxylic acid] | 7.00 to 8.00 | > 7.00 | > 7.00 | ≤ 6.00 | 6.00 to 7.00 | 7.00 to 8.00 |  |  | pKi (NDM-1 [1]; [10]): > 8.00; pKi (NDM-1 [1]; [12]): > 8.00; pKi (OXA-48; [17]): > 8.00
Nc1nnc(S[C@H]2Cc3ccc(F)c(C(=O)O)c3OB2O)s1 [Compound 23, (R)-3-(5-amino-1,3,4-thiadiazol-2-ylthio)-7-fluoro-2-hydroxy-3,4-dihydro-2H-benzo[e][1,2]oxaborinine-8-carboxylic acid] | 7.00 to 8.00 | > 7.00 | > 7.00 | ≤ 6.00 | > 7.00 | 7.00 to 8.00 |  |  | pKi (KPC-2; cleavage of biapenem by KPC-2, read-out: Ki, Biapenem): > 8.00; pKi (KPC-2; cleavage of doripenem by KPC-2, read-out: Ki, Doripenem): > 8.00; pKi (KPC-2; cleavage of imipenem by KPC-2, read-out: Ki, Imipenem): 7.00 to 8.00; pKi (KPC-2; cleavage of meropenem by KPC-2, read-out: Ki, Meropenem): > 8.00; pKi (KPC-2; cleavage of tebipenem by KPC-2, read-out: Ki, Tebipenem): > 8.00; pKi (OXA-48; [13]): > 8.00; pKi (OXA-48; cleavage of doripenem by OXA-48, read-out: Ki, Doripenem): > 8.00; pKi (OXA-48; [14]): > 8.00; pKi (OXA-48; [15]): > 8.00; pKi (OXA-48; [16]): > 8.00
COc1ccc2c(c1C(=O)O)OB(O)[C@@H](Sc1nnc(NCCN)s1)C2 [Compound 97, (3R)-3-[[5-(2-aminoethylamino)-1,3,4-thiadiazol-2-yl]sulfanyl]-2-hydroxy-7-methoxy-3,4-dihydro-1,2-benzoxaborinine-8-carboxylic acid] | > 8.00 | > 7.00 | > 7.00 | > 6.00 | 6.00 to 7.00 | > 8.00 | Y (0.1 μM to 1 μM) | X (Less than 0.1 μM) | meropenem MIC [7]: significantly reduced
CCOc1ccc2c(c1C(=O)O)OB(O)[C@@H](Sc1nnc(NC3CNC3)s1)C2 [Compound 118, (3R)-3-[[5-(azetidin-3-ylamino)-1,3,4-thiadiazol-2-yl]sulfanyl]-7-ethoxy-2-hydroxy-3,4-dihydro-1,2-benzoxaborinine-8-carboxylic acid] | < 7.00 | > 7.00 | > 7.00 | > 6.00 | 6.00 to 7.00 | < 7.00 | Y (0.1 μM to 1 μM) | X (Less than 0.1 μM) | 
Nc1nnc(S[C@H]2Cc3ccc(-n4ccnn4)c(C(=O)O)c3OB2O)s1 [Compound 119, (3R)-3-[(5-amino-1,3,4-thiadiazol-2-yl)sulfanyl]-2-hydroxy-7-(triazol-1-yl)-3,4-dihydro-1,2-benzoxaborinine-8-carboxylic acid] | > 8.00 | > 7.00 | 6.00 to 7.00 | > 6.00 | < 6.00 | > 8.00 | Y (0.1 μM to 1 μM) | X (Less than 0.1 μM) | 
